24 molecules from ChEMBL document CHEMBL4813997, “Discovery of 3-aryl substituted benzoxaboroles as broad-spectrum inhibitors of serine- and metallo-β-lactamases” (Bioorg Med Chem Lett, 2021) can be followed below.

Broadly, the IC50 is the point on the concentration scale where inhibition reaches its midpoint. A high value points to weaker potency. Usually MIC stands for the lowest concentration found to suppress growth.

In brackets after ≈: the same amount, converted by molar mass.

A short description of series [1]: Inhibition of bacterial Beta-lactamase KPC-2 (29 - 289) (unknown origin) expressed in Escherichia coli Transetta (DE3). The arrangement: species or system Bacteria.
The next series has as its target Beta-lactamase TEM (Bacteria, UniProt P62593). In words: Inhibition of bacterial Beta-lactamase TEM-1 (24 - 286) (unknown origin) expressed in Escherichia coli Transetta (DE3).
Series [2] can be described thus: Inhibition of bacterial Beta-lactamase AmpC (20 - 377) (unknown origin) expressed in Escherichia coli Transetta (DE3). The arrangement: species or system Bacteria.
Series [3] in a line: Inhibition of bacterial Beta-lactamase OXA-48 (1 - 265) (unknown origin) expressed in Escherichia coli Transetta (DE3). The arrangement: species or system Bacteria.
Series [4] can be described thus: Inhibition of bacterial New Delhi metallo-beta-lactamase 1 (1- 270) (unknown origin) expressed in Escherichia coli Transetta (DE3). More on the design: species or system Bacteria.
A short description of series [5]: Inhibition of bacterial Beta-lactamase VIM-1 (27 - 266) (unknown origin) expressed in Escherichia coli Transetta (DE3). The arrangement: species or system Bacteria.
The nature of series [6]: Inhibition of bacterial Beta-lactamase SFH-1 (3 - 234) expressed in Escherichia coli Transetta (DE3). More on the design: species or system Bacteria.
Series [7] relates to Klebsiella pneumoniae. In words: Potentiation of meropenem-induced antibacterial activity against AmpC/TEM-1 producing Klebsiella pneumoniae C692 assessed as MIC of meropenem at 100 uM. Type of series: functional.
In series [8] the test system is Escherichia coli. Briefly: Potentiation of meropenem-induced antibacterial activity against KPC-2 producing Escherichia coli BAA2340 assessed as MIC of meropenem at 100 uM. The series is classed as functional.
In series [9] the test system is Escherichia coli. Briefly: Potentiation of meropenem-induced antibacterial activity against KPC-2 producing Escherichia coli 11119 assessed as MIC of meropenem at 100 uM. Type of series: functional.
In series [10] the test system is Klebsiella pneumoniae. Briefly: Potentiation of meropenem-induced antibacterial activity against AmpC/TEM-1 producing Klebsiella pneumoniae C692 assessed as MIC of meropenem at 10 uM. Type of series: functional.
For series [11], the system named is Escherichia coli. In words: Potentiation of meropenem-induced antibacterial activity against KPC-2 producing Escherichia coli BAA2340 assessed as MIC of meropenem at 10 uM. Type of series: functional.
Series [12] concerns Escherichia coli. In words: Potentiation of meropenem-induced antibacterial activity against KPC-2 producing Escherichia coli 11119 assessed as MIC of meropenem at 10 uM. Type of series: functional.
The next series relates to HEK-293T. In words: Cytotoxicity against human HEK293T cells assessed as reduction in cell viability at 10 to 100 uM. The settings on record: dose 10-100 µM. Type of series: cell-based.
Another series has as its target Beta-lactamase (Klebsiella pneumoniae, UniProt Q93LQ9). Briefly: Inhibition of Klebsiella pneumoniae KPC-2.
Series [13] concerns Escherichia coli. Briefly: Antibacterial activity against Escherichia coli ATCC 25922. Type of series: functional.
The test system of series [14] is Klebsiella pneumoniae. In words: Antibacterial activity against AmpC/TEM-1 producing Klebsiella pneumoniae C692. Type of series: functional.
Series [15] has as its system Escherichia coli. Briefly: Antibacterial activity against KPC-2 producing Escherichia coli BAA2340. The series is classed as functional.
The test system of series [16] is Escherichia coli. In words: Antibacterial activity against KPC-2 producing Escherichia coli 11119. Type of series: functional.

Sequence of Beta-lactamase TEM (P62593 whole entry): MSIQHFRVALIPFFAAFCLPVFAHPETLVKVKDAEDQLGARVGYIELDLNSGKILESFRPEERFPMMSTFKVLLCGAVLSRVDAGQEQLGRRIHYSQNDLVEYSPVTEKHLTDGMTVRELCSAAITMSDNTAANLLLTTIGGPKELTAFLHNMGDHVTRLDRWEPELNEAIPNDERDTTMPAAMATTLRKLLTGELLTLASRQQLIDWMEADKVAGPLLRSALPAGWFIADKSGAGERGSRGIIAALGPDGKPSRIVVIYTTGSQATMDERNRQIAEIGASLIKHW
Sequence of Beta-lactamase (Q93LQ9 whole entry): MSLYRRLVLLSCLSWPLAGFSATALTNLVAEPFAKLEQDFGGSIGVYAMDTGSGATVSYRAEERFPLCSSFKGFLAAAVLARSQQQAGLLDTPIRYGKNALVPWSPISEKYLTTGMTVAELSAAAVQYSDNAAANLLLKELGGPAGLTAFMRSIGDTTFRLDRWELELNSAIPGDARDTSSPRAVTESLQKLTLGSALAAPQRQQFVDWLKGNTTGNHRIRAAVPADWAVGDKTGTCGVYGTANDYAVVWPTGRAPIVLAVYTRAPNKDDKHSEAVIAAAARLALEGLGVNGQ

In the case of `CNc1ccc(C2OB(O)c3cccc(F)c32)cc1` (stereo unspecified), the IC50 in series [1] is 2.41 µM; against Beta-lactamase TEM, 37.9 µM; in series [2], 15.3 µM; in series [3], 6.49 µM; in series [4] it was 51.4 µM; in series [5], over 100 µM. For the same molecule, it took 1.15 µM to reach half-maximal inhibition in series [6] (IC50).
For `OB1OC(c2c[nH]c3ccc(Br)cc23)c2ccc(F)cc21` (stereo unspecified), the IC50 (in series [1]; at Beta-lactamase TEM; in series [2]; in series [3]; in series [4]; in series [5]) was over 100 µM throughout. Also, the IC50 in series [6] is over 100 µM.
Regarding `CN(C)c1ccc(C2OB(O)c3ccc(Cl)cc32)cc1` (stereo unspecified), the IC50 in [1] was 0.086 µM; against Beta-lactamase TEM, 1.54 µM; in series [2], 22.7 µM; in series [3], 2.34 µM; in series [4] it was 9.05 µM; in series [5] it was over 100 µM. For the same molecule, in series [6], 3.81 µM corresponded to half-maximal inhibition (IC50). The MIC with Klebsiella pneumoniae [7] is over 128 µg/mL; in the series on Escherichia coli [8], 0.5 µg/mL; in the series with Escherichia coli [9] it was 8 µg/mL; in the series with Klebsiella pneumoniae [10], over 128 µg/mL; in the series on Escherichia coli [11], 2 µg/mL; with Escherichia coli [12] it was 32 µg/mL. Further, the Activity result in the series on HEK-293T is reported as “Non-Toxic”.
Consider `CN(C)c1ccc(C2OB(O)c3cccc(F)c32)cc1` (stereo unspecified), for which the IC50 in series [1] is 1.91 µM; against Beta-lactamase TEM it was 20.7 µM; in series [2], 15.1 µM; in series [3] it was 7.48 µM; in series [4], 25.6 µM; in series [5], over 100 µM. The same molecule returned an IC50 in series [6] of 1.83 µM.
On to `CN(C)c1ccc(C2OB(O)c3cc(Cl)ccc32)cc1` (stereo unspecified), for which the IC50 in series [1] is 0.81 µM; against Beta-lactamase TEM it was 4.34 µM; in series [2], 3.6 µM; in series [3], 1.96 µM; in [4], 61.7 µM; in [5] it was over 100 µM. This molecule showed an IC50 in [6] of 0.47 µM.
`OB1OC(c2c[nH]c3ccc(Cl)cc23)c2ccccc21` (stereo unspecified): the IC50 in series [1] is 0.2 µM; on Beta-lactamase TEM, over 100 µM; in [2], 5.66 µM; in [3], over 100 µM; in series [4], over 100 µM; in series [6], 18.6 µM.
As to `OB1OC(c2ccc(N3CCCCC3)cc2)c2ccccc21` (stereo unspecified), the IC50 turned out to be 0.51 µM in series [1]; 33 µM against Beta-lactamase TEM; 32.2 µM in [2]; 3.44 µM in series [3]; 11.7 µM in series [4]; 18.4 µM in series [5]. In series [6], half-maximal inhibition (IC50) required 5.27 µM.
On to `OB1OC(c2c[nH]c3ccc(F)cc23)c2ccccc21` (stereo unspecified), for which the IC50 in series [1] was 0.36 µM; at Beta-lactamase TEM it was 88.8 µM; in series [2], 7.27 µM; in [3], over 100 µM; in series [4], over 100 µM; in series [5], 62.5 µM. In [6], this molecule showed an IC50 of 6.58 µM.
`OB1OC(c2c[nH]c3ccc(OCc4ccccc4)cc23)c2ccccc21` (stereo unspecified): the IC50 (in [1]; on Beta-lactamase TEM; in series [2]; in [3]; in [4]; in series [5]) was over 100 µM each time. Besides, the IC50 in series [6] is over 100 µM.
On to `OB1OC(c2c[nH]c3ccc(Br)cc23)c2ccccc21` (stereo unspecified), for which the IC50 is 9.43 µM in series [1]; over 100 µM at Beta-lactamase TEM; 25.9 µM in series [2]; over 100 µM in [3]; 24 µM in series [4]; 13.1 µM in series [5]. This molecule also returned an IC50 in [6] of 14.9 µM.
For the molecule `OB1OC(c2ccccc2)c2ccccc21` (stereo unspecified), the IC50 in series [1] came to 1 µM; at Beta-lactamase TEM it was 4.46 µM; in series [2], 29.2 µM; in series [3], 8.67 µM; in [4] it was 89 µM; in [5], 73.8 µM. The same molecule came in with a half-inhibitory concentration (IC50) in series [6] of 3.56 µM.
With `COc1ccc2c(c1)C(c1ccc(N(C)C)cc1)OB2O` (stereo unspecified), the IC50 was 0.18 µM in series [1]; 1.54 µM on Beta-lactamase TEM; 11.4 µM in series [2]; 2.93 µM in series [3]; 38.4 µM in series [4]; over 100 µM in [5]. In [6], this molecule registered an IC50 of 4.23 µM.
On to `Cc1ccc2[nH]cc(C3OB(O)c4ccccc43)c2c1` (stereo unspecified), for which the IC50 was 0.22 µM in series [1]; over 100 µM on Beta-lactamase TEM; 8.52 µM in series [2]; over 100 µM in [3]; 68 µM in [4]; 16.2 µM in [5]. In series [6], this molecule gave an IC50 of 19.4 µM.
Take `OB1OC(c2cn(Cc3ccccc3)c3ccccc23)c2ccccc21` (stereo unspecified): the IC50 was over 100 µM in series [1]; over 100 µM at Beta-lactamase TEM; over 100 µM in series [2]; over 100 µM in series [3]; 15.9 µM in series [4]; 10.6 µM in series [5]. In addition, in series [6], the IC50 is 9.6 µM.
For `CN(C)c1ccc(C2OB(O)c3ccc(F)cc32)cc1` (stereo unspecified), the IC50 was 0.35 µM in [1]; 5.68 µM against Beta-lactamase TEM; 39.3 µM in series [2]; 3.58 µM in series [3]; 11.2 µM in series [4]; over 100 µM in series [5]. The molecule also displayed a 50% inhibitory concentration (IC50) in series [6] of 3.64 µM.
For the molecule `CNc1ccc(C2OB(O)c3ccccc32)cc1` (stereo unspecified), the IC50 in series [1] worked out at 0.1 µM; against Beta-lactamase TEM, 3.2 µM; in series [2] it was 13.9 µM; in series [3], 2.37 µM; in series [4], 57.4 µM; in series [5], 26.4 µM. The molecule also returned an IC50 in [6] of 3.02 µM.
On to `OB1OC(c2c[nH]c3ccccc23)c2ccccc21` (stereo unspecified), for which the IC50 in series [1] is 2.58 µM; on Beta-lactamase TEM it was over 100 µM; in series [2], 3.66 µM; in series [3], over 100 µM; in [4] it was 6.04 µM; in [5], 15.2 µM. 8.5 µM corresponded to half-maximal inhibition in series [6] (IC50).
With `CN(C)c1ccc(C2OB(O)c3ccccc32)cc1` (stereo unspecified), the IC50 is 0.18 µM in series [1]; 0.73 µM against Beta-lactamase TEM; 8.27 µM in [2]; 2.41 µM in series [3]; 8.44 µM in series [4]; 39.4 µM in series [5]. In series [6], 2.52 µM corresponded to half-maximal inhibition (IC50).
`OB1OC(c2c[nH]c3ccccc23)c2c(F)cccc21` (stereo unspecified): the half-maximal inhibitory concentration (IC50) in series [1] is 6.56 µM; against Beta-lactamase TEM, over 100 µM; in series [2], 10.8 µM; in series [3], over 100 µM; in [4] it was 25.4 µM; in series [5], 89.7 µM. The molecule further registered an IC50 in [6] of 2.17 µM.
Turning to `OB1OC(c2cccs2)c2ccccc21` (stereo unspecified), the IC50 in series [1] was determined as 0.41 µM; at Beta-lactamase TEM, 6.97 µM; in [2] it was 18.7 µM; in [3] it was 5.45 µM; in series [4], 22.4 µM; in series [5], 17.4 µM. Also, 2.47 µM corresponded to half-maximal inhibition in [6] (IC50). The MIC is over 128 µg/mL in the series with Klebsiella pneumoniae [7]; 0.5 µg/mL with Escherichia coli [8]; 2 µg/mL in the series on Escherichia coli [9]; over 128 µg/mL in the series with Klebsiella pneumoniae [10]; 2 µg/mL in the series with Escherichia coli [11]; 32 µg/mL in the series with Escherichia coli [12]. Further, the Activity result with HEK-293T was “Non-Toxic”.
With `CN(C)c1ccc(C2OB(O)c3cc4c(cc32)OCO4)cc1` (stereo unspecified), the IC50 in series [1] was found to be 0.76 µM; at Beta-lactamase TEM, 1.15 µM; in series [2] it was 5.23 µM; in [3] it was 6.4 µM; in series [4] it was 16.6 µM; in series [5] it was 51 µM. Besides, the IC50 in series [6] worked out at 2.77 µM.
Consider `NC(=O)[C@@H]1CC[C@@H]2CN1C(=O)N2OS(=O)(=O)O` [AVIBACTAM], for which the IC50 is 0.0037 µM in series [1]; 0.024 µM in series [2]; 0.17 µM in series [3]; over 100 µM in series [4]; over 100 µM in series [5]; 0.025 µM in [6].
Regarding `N#Cc1ccc(Oc2ccc3c(c2)COB3O)cc1` [CRISABOROLE], it took 0.67 µM to reach half-maximal inhibition at Beta-lactamase (IC50).
`C[C@@H](O)[C@H]1C(=O)N2C(C(=O)O)=C(S[C@@H]3CN[C@H](C(=O)N(C)C)C3)[C@H](C)[C@H]12` [MEROPENEM]: the MIC against Escherichia coli [13] is 0.06 µg/mL (≈ 0.156 µM); in the series on Klebsiella pneumoniae [14], over 128 µg/mL; with Escherichia coli [15], 16 µg/mL (≈ 41.7 µM); in the series with Escherichia coli [16], 64 µg/mL (≈ 167 µM).
